Results: US20260184691A1, “INHIBITORS AND DEGRADERS OF PIP4K PROTEIN” (Larkspur Biosciences, Inc., priority 2022, published 2026)

target: T1, Human PIP4K2C (Homo sapiens, UniProt Q8TBX8); assay: Enzyme binding assay (KINOMEscan), active site-directed competition binding; settings: 11-point dose response, duplicate, top concentration 5 micromolar; read-out: Pip4k2c Kd: IC50
T1 construct: purchased Eurofins DiscoverX 87-0007-1094
T1 sequence (Q8TBX8 1-421): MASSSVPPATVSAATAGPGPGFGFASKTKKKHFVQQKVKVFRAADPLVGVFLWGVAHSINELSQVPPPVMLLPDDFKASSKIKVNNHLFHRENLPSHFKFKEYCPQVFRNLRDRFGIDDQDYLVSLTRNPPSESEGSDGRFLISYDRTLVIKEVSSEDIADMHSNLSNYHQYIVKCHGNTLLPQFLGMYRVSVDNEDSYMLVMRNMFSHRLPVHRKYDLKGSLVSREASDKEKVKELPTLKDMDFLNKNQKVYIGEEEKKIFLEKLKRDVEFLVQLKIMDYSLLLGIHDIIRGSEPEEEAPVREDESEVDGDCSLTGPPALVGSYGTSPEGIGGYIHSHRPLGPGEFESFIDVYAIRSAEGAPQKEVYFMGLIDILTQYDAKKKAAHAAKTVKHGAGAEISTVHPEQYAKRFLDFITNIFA
Procedure: PIP4K2C binding constants disclosed herein were determined using the proprietary Human PIP4K2C binding assay (Catalog number 87-0007-1094, Eurofins DiscoverX, San Diego, CA). This assay measures active site-directed competition binding to an immobilized ligand (see https://doi.org/10.1038/nbt1068, herein incorporated by reference in its entirety). Experiments were conducted using an 11-point dose response curve, in duplicate, with a top starting concentration of 5 micromolar; the Levenberg-Marquardt algorithm was used to fit a Hill equation to dose-response data to calculate IC50 values (see Table 5).

IC50 | SMILES
< 500 nM | O=C1CCCN1c1cncc(Nc2cc(-c3ccc(F)cc3)c(Cl)cn2)c1 [Compound 103, 1-(5-((5-chloro-4-(4-fluorophenyl)pyridin-2-yl)amino)pyridin-3-yl)pyrrolidin-2-one]
500 to 1000 nM | O=C1CCCN1c1cncc(Nc2cc(-c3ccc(F)cc3F)c(Cl)cn2)c1 [Compound 104, 1-(5-((5-chloro-4-(2,4-difluorophenyl)pyridin-2-yl)amino)pyridin-3-yl)pyrrolidin-2-one]
500 to 1000 nM | Cc1cc(-c2nc(Nc3cncc(N4CCCC4=O)c3)ncc2Cl)ccn1 [Compound 105, 1-(5-((5-chloro-4-(2-methylpyridin-4-yl)pyrimidin-2-yl)amino)pyridin-3-yl)pyrrolidin-2-one]
< 500 nM | CC1CCCCN1c1nc(Nc2cncc(N3CCCC3=O)c2)ncc1Cl (stereo not shown) [Compound 106, 1-(5-((5-chloro-4-(2-methylpiperidin-1-yl)pyrimidin-2-yl)amino)pyridin-3-yl)pyrrolidin-2-one]
< 500 nM | O=C1CCCN1c1cncc(Nc2ncc(Cl)c(N3CCOCC3)n2)c1 [Compound 107, 1-(5-((5-chloro-4-morpholinopyrimidin-2-yl)amino)pyridin-3-yl)pyrrolidin-2-one]
< 500 nM | O=C1CCCN1c1cncc(Nc2ncc(Cl)c(-c3ccc(F)cc3F)n2)c1 [Compound 108, 1-(5-((5-chloro-4-(2,4-difluorophenyl)pyrimidin-2-yl)amino)pyridin-3-yl)pyrrolidin-2-one]
< 500 nM | CCCCNC(=O)C1CCCN(c2nc(Nc3cncc(N4CCCC4=O)c3)ncc2Cl)C1 (stereo not shown) [Compound 109, N-butyl-1-(5-chloro-2-((5-(2-oxopyrrolidin-1-yl)pyridin-3-yl)amino)pyrimidin-4-yl)piperidine-3-carboxamide]
< 500 nM | CCCCC(=O)NC1CCCN(c2nc(Nc3cncc(N4CCCC4=O)c3)ncc2Cl)C1 (stereo not shown) [Compound 110, N-(1-(5-chloro-2-((5-(2-oxopyrrolidin-1-yl)pyridin-3-yl)amino)pyrimidin-4-yl)piperidin-3-yl)pentanamide]
< 500 nM | CC(C)c1cc(-c2nc(Nc3cncc(N4CCCC4=O)c3)ncc2Cl)ccn1 [Compound 111, 1-(5-((5-chloro-4-(2-isopropylpyridin-4-yl)pyrimidin-2-yl)amino)pyridin-3-yl)pyrrolidin-2-one]
< 500 nM | O=C1CCCN1c1cncc(Nc2ncc(Cl)c(-c3ccc(F)cc3Cl)n2)c1 [Compound 112, 1-(5-((5-chloro-4-(2-chloro-4-fluorophenyl)pyrimidin-2-yl)amino)pyridin-3-yl)pyrrolidin-2-one]
< 500 nM | Cc1cc(F)ccc1-c1nc(Nc2cncc(N3CCCC3=O)c2)ncc1Cl [Compound 113, 1-(5-((5-chloro-4-(4-fluoro-2methylphenyl)pyrimidin-2-yl)amino)pyridin-3-yl)pyrrolidin-2-one]
< 500 nM | CC1CN(c2nc(Nc3cncc(N4CCCC4=O)c3)ncc2Cl)CC(C)O1 (stereo not shown) [Compound 114, 1-(5-((5-chloro-4-(2,6-dimethylmorpholino)pyrimidin-2-yl)amino)pyridin-3-yl)pyrrolidin-2-one]
< 500 nM | CC1CC(C)CN(c2nc(Nc3cncc(N4CCCC4=O)c3)ncc2Cl)C1 (stereo not shown) [Compound 115, 1-(5-((5-chloro-4-(3,5-dimethylpiperidin-1-yl)pyrimidin-2-yl)amino)pyridin-3-yl)pyrrolidin-2-one]
< 500 nM | Cc1ccccc1-c1nc(Nc2cncc(N3CCCC3=O)c2)ncc1Cl [Compound 116, 1-(5-((5-chloro-4-(o-tolyl)pyrimidin-2-yl)amino)pyridin-3-yl)pyrrolidin-2-one]
< 500 nM | O=C1CCCN1c1cncc(Nc2cc(-c3ccccc3)c(Cl)cn2)c1 [Compound 117, 1-(5-((5-chloro-4-phenylpyridin-2-yl)amino)pyridin-3-yl)pyrrolidin-2-one]
< 500 nM | O=C1CCCN1c1cncc(Nc2ncc(Cl)c(-c3ccc(F)cc3)n2)c1 [Compound 118, 1-(5-((5-chloro-4-(4-fluorophenyl)pyrimidin-2-yl)amino)pyridin-3-yl)pyrrolidin-2-one]
< 500 nM | O=C1CCCN1c1cncc(Nc2ncc(Cl)c(N3CCCCC3C(F)(F)F)n2)c1 (stereo not shown) [Compound 119, 1-(5-((5-chloro-4-(2-(trifluoromethyl)piperidin-1-yl)pyrimidin-2-yl)amino)pyridin-3-yl)pyrrolidin-2-one]

IC50 | SMILES
< 500 nM | O=C1CCCN1c1cncc(Nc2ncc(Cl)c(N3CCC(c4ccccn4)C3)n2)c1 (stereo not shown) [Compound 120, 1-(5-((5-chloro-4-(3-(pyridin-2-yl)pyrrolidin-1-yl)pyrimidin-2-yl)amino)pyridin-3-yl)pyrrolidin-2-one]
< 500 nM | O=C1CCCN1c1cncc(Nc2ncc(Cl)c(N3CCC(N4CCCCC4)C3)n2)c1 (stereo not shown) [Compound 121, 1-(5-((5-chloro-4-(3-(piperidin-1-yl)pyrrolidin-1-yl)pyrimidin-2-yl)amino)pyridin-3-yl)pyrrolidin-2-one]
< 500 nM | O=C1CCCN1c1cncc(Nc2ncc(Cl)c(-c3cccc(N4CCC4)c3)n2)c1 [Compound 122, 1-(5-((4-(3-(azetidin-1-yl)phenyl)-5-chloropyrimidin-2-yl)amino)pyridin-3-yl)pyrrolidin-2-one]
< 500 nM | O=C1CCCN1c1cncc(Nc2ncc(Cl)c(N3CCCC(C4CCC4)C3)n2)c1 (stereo not shown) [Compound 123, 1-(5-((5-chloro-4-(3-cyclobutylpiperidin-1-yl)pyrimidin-2-yl)amino)pyridin-3-yl)pyrrolidin-2-one]
< 500 nM | O=C1CCCN1c1cncc(Nc2ncc(Cl)c(N3CCCC(C4CC4)C3)n2)c1 (stereo not shown) [Compound 126, 1-(5-((5-chloro-4-(3-cyclopropylpiperidin-1-yl)pyrimidin-2-yl)amino)pyridin-3-yl)pyrrolidin-2-one]
< 500 nM | O=C1CCCN1c1cncc(Nc2ncc(Cl)c(N3CCCc4ccccc43)n2)c1 [Compound 127, 1-(5-((5-chloro-4-(3,4-dihydroquinolin-1(2H)-yl)pyrimidin-2-yl)amino)pyridin-3-yl)pyrrolidin-2-one]
< 500 nM | O=C1CCCN1c1cncc(Nc2ncc(Cl)c(N3CCc4ccccc4C3)n2)c1 [Compound 128, 1-(5-((5-chloro-4-(3,4-dihydroisoquinolin-2(1H)-yl)pyrimidin-2-yl)amino)pyridin-3-yl)pyrrolidin-2-one]
< 500 nM | O=C1CCCN1c1cncc(Nc2ncc(Cl)c(N3CCc4ccccc43)n2)c1 [Compound 129, 1-(5-((5-chloro-4-(indolin-1-yl)pyrimidin-2-yl)amino)pyridin-3-yl)pyrrolidin-2-one]
< 500 nM | O=C1CCCN1c1cncc(Nc2ncc(Cl)c(N3Cc4ccccc4C3)n2)c1 [Compound 130, 1-(5-((5-chloro-4-(isoindolin-2-yl)pyrimidin-2-yl)amino)pyridin-3-yl)pyrrolidin-2-one]
< 500 nM | O=C1CCCN1c1cncc(Nc2ncc(Cl)c(N3CCCC(C4CCCC4)C3)n2)c1 (stereo not shown) [Compound 131, 1-(5-((5-chloro-4-(3-cyclopentylpiperidin-1-yl)pyrimidin-2-yl)amino)pyridin-3-yl)pyrrolidin-2-one]
< 500 nM | CN1CCC2(CC1)CCN(c1cncc(Nc3ncc(Cl)c(-c4cccc(-c5ccccc5)c4)n3)c1)C2=O [Compound 132, 2-[5-[[5-chloro-4-(3-phenylphenyl)pyrimidin-2-yl]amino]-3-pyridyl]-8-methyl-2,8-diazaspiro[4.5]decan-1-one]
< 500 nM | CC(=O)N1CCC2(CC1)CCN(c1cncc(Nc3ncc(Cl)c(-c4cccc(-c5ccccc5)c4)n3)c1)C2=O [Compound 133, 8-acetyl-2-[5-[[5-chloro-4-(3-phenylphenyl)pyrimidin-2-yl]amino]-3-pyridyl]-2,8-diazaspiro[4.5]decan-1-one]
< 500 nM | O=C1CCCN1c1cncc(Nc2ncc(Cl)c(N3CCOC(c4ccccn4)C3)n2)c1 (stereo not shown) [Compound 134, 1-[5-[[5-chloro-4-[2-(2-pyridyl)morpholin-4-yl]pyrimidin-2-yl]amino]-3-pyridyl]pyrrolidin-2-one]
< 500 nM | O=C1CCCN1c1cncc(Nc2ncc(Cl)c(C3CCCN(C4CCCC4)C3)n2)c1 (stereo not shown) [Compound 135, 1-(5-((5-chloro-4-(1-cyclopentylpiperidin-3-yl)pyrimidin-2-yl)amino)pyridin-3-yl)pyrrolidin-2-one]
< 500 nM | O=C1CCCN1c1cncc(Nc2ncc(Cl)c(N3CCC(C4CCCC4)C3)n2)c1 (stereo not shown) [Compound 136, 1-(5-((5-chloro-4-(3-cyclopentylpyrrolidin-1-yl)pyrimidin-2-yl)amino)pyridin-3-yl)pyrrolidin-2-one]
< 500 nM | O=C1CCCN1c1cncc(Nc2ncc(Cl)c(-c3cnn(C4CCC4)c3)n2)c1 [Compound 137, 1-(5-((5-chloro-4-(1-cyclobutyl-1H-pyrazol-4-yl)pyrimidin-2-yl)amino)pyridin-3-yl)pyrrolidin-2-one]
< 500 nM | O=C1CCCN1c1cncc(Nc2ncc(Cl)c(-c3cnn(C4CCCC4)c3)n2)c1 [Compound 138, 1-[5-[[5-chloro-4-(1-cyclopentylpyrazol-4-yl)pyrimidin-2-yl]amino]-3-pyridyl]pyrrolidin-2-one]
